# Results as given in patent US20240189315A1, “Cyclic Pyridine Derivatives as cGAS Inhibitors” (Boehringer Ingelheim International GmbH, priority 2022, published 2024).
# Where two headings read alike, the source gives them in different places.
# Assays:
# [1] = system: pathway directly downstream of cGAS in cGAMP-stimulated THP1-Dual cells; assay: cGAMP stimulated counter cell assay (THP1(cGAMP) IC50): IFN induction in cGAMP-stimulated THP1-Dual cells; type: cell-based, human; conditions: Homo sapiens, THP1-Dual; Table 3; Compound No. 5 of WO 2022/174012; read-out: THP1(cGAMP) IC50
# How it was run: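 THP1-Dual cells with IRF-driven Lucia luciferase reporter, stimulated by empty baculovirus (cGAS route) or by cGAMP (counter assay); 5000 cells/well, 8-point dilutions from 10 μM top, 1% DMSO, 18 h at 37° C. Luminescence read; IC50 by 4-parameter logistic fit against unstimulated low control.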
# [2] = molecular target: T1, cellular cGAS activity in baculovirus-stimulated THP1-Dual cells (Homo sapiens (Human), UniProt Q8N884); assay: Human cGAS cell assay (THP1(vir) IC50): IFN induction in virus-stimulated THP1-Dual cells, IRF Lucia luciferase reporter;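 also: Eight-point dilution series starting at 10 µM, 1% DMSO, 18 h at 37 °C, luminescence read-out, virus-free wells as 0% and DMSO-treated virus-stimulated wells as 100%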; type: cell-based; conditions: Table 3; Compound No. 5 of WO 2022/174012; read-out: THP1(vir) IC50
# THP-1 = conditions: Table 3, page 67/68 of WO 2022/174012; read-out: cellular IC50-value group (IFNβ ELISA stimulated with THP-1); cited from earlier work
# Human cGAS enzyme = Human cGAS enzyme (Homo sapiens (Human), UniProt Q8N884); assay: Human cGAS enzyme assay (hcGAS IC50, in vitro), cGAMP formation by RapidFire MS;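 also: recombinant human cGAS activated by 45 bp dsDNA with 30 µM each ATP and GTP, 90 min, cGAMP vs cyclic-di-GMP standard by MS, 8-point titration from 10 µM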; type: biochemical; conditions: Table 3; Compound No. 5 of WO 2022/174012 re-tested in the applicant's assay
# [3] = amide bond, HATU, 25.0 °C, 1.0 h
# [4] = molecular target: cellular cGAS activity in dsDNA-stimulated human whole blood (Homo sapiens (Human), UniProt Q8N884); conditions: Table 4; compounds and methyl ester prodrugs of PCT/EP2022/062480 and PCT/EP2022/062496; read-out: hWB IC50; cited from earlier work
# [5] = system: pathway directly downstream of cGAS in cGAMP-stimulated THP1-Dual cells; conditions: Table 4; compounds and methyl ester prodrugs of PCT/EP2022/062480 and PCT/EP2022/062496; cited from earlier work
# [6] = molecular target: T1, cellular cGAS activity in baculovirus-stimulated THP1-Dual cells; conditions: Table 4; compounds and methyl ester prodrugs of PCT/EP2022/062480 and PCT/EP2022/062496; read-out: THP1(vir) IC50; cited from earlier work
# T1 sequence (Q8N884 whole entry): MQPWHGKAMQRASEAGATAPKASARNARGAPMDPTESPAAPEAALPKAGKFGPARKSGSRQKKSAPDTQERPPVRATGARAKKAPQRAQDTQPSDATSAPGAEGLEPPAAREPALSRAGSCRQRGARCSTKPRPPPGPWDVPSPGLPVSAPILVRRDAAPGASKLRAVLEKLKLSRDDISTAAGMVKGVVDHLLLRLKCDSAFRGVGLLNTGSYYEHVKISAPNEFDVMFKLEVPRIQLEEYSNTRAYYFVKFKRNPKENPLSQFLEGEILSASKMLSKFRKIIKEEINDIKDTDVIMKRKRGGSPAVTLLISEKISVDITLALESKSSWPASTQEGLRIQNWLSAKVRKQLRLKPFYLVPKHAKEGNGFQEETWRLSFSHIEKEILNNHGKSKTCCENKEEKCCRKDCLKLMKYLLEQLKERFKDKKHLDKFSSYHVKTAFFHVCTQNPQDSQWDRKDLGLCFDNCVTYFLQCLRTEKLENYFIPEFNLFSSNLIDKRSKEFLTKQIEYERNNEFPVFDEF
# Sequence of cellular cGAS activity in dsDNA-stimulated human whole blood (Q8N884 whole entry): as above
# Sequence of Human cGAS enzyme (Q8N884 whole entry): as above
SMILES,IC50 [4] [nM],IC50 [5] [nM],IC50 [6] [nM],other results
"Cc1nc(N2C[C@@H](CC(=O)Nc3ccc(-c4ccccc4)cc3)C[C@H]2C(=O)O)c2oc3ccccc3c2n1 [Compound 5 (BBL0100455), reference compound]",–,–,–,IC50 [1]: > 10000 nM; IC50 [2]: > 10000 nM; IC50 (THP-1): < 1000 nM; IC50 (Human cGAS enzyme): 55 nM
C[C@H]1CN2CC[C@]1(F)c1cc(Cl)cnc1O[C@H]1C[C@@H](C(=O)OC(C)(C)C)N(C1)c1nc(nc3c1oc1ccccc13)CC(=O)NCCOC2=O,–,–,–,"ring closure, yield of all isomers ([3]; from C[C@H]1CN(C(=O)OCCN)CC[C@]1(F)c1cc(Cl)cnc1O[C@H]1C[C@@H](C(=O)OC(C)(C)C)N(c2nc(CC(=O)O)nc3c2oc2ccccc23)C1, DMA, 15.75 mM): 11.3%"
C#Cc1cnc(O[C@H]2C[C@@H](C(=O)O)N(c3nc(C(F)(F)F)nc4c3oc3ccccc34)C2)c(N2CCOC3(COC3)[C@@H]2C)c1 [Ex. 1.12 of PCT/EP2022/062480],15,11900,7,–
C[C@H]1CN2CC[C@]1(F)c1cc(Cl)cnc1O[C@H]1C[C@@H](C(=O)OC(C)(C)C)N(C1)c1nc(nc3c1oc1ccccc13)CC(=O)NCCCC2=O,–,–,–,"ring closure, yield of all isomers ([3]; from C[C@H]1CN(C(=O)CCCN)CC[C@]1(F)c1cc(Cl)cnc1O[C@H]1C[C@@H](C(=O)OC(C)(C)C)N(c2nc(CC(=O)O)nc3c2oc2ccccc23)C1, DMF, 10.0 mM): 42%"
COC(=O)[C@@H]1C[C@H](Oc2ncc(Br)cc2N2CCOC3(COC3)[C@@H]2C)CN1c1nc(C(F)(F)F)nc2c1oc1ccccc12 [P02 of PCT/EP2022/062480],5330,17100,444,–
C[C@H]1CS(=O)(=O)CC[C@]1(F)c1cc(Cl)cnc1O[C@H]1C[C@@H](C(=O)O)N(c2nc(C(F)F)nc3c2oc2ccccc23)C1 [Ex. 1.13 of PCT/EP2022/062496],6,22500,6,–
C[C@@H]1N(c2cccnc2O[C@H]2C[C@@H](C(=O)O)N(c3nc(C(F)F)nc4c3oc3ccccc34)C2)CCOC12COC2 [Ex. 4.04 of PCT/EP2022/062480],77,> 16600,386,–
